Reference: PubChem BioAssay AID248 (DTP/NCI, 2004)
Where “and” joins values, the source holds several entries; their conditions need not be identical. Equal entries are not always repeated. Inconclusive results and toxic doses are left out. No stated cut-off is given here; in the data, active means T/C of 150% or more; inactive means T/C below 125%.

Tested on: L1210 leukemia ip in BDF1 mice, survival T/C
Assay: NCI In Vivo Anticancer Drug Screen. Data for tumor model L1210 Leukemia (intraperitoneal) in B6D2F1 (BDF1) mice
Conditions: endpoint: mean survival time, higher = longer survival
Procedure, shortened: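 In this screen, tumor-bearing mice given compound are compared to those given vehicle, and their survival values are reported as a treated-to-control quotient.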

[1] = dose: 100.0 mg/kg/injection, schedule: Q01DX001 (ip), vehicle: carboxymethylcellulose (CMC)
[2] = dose: 200.0 mg/kg/injection, schedule: Q01DX001 (ip), vehicle: carboxymethylcellulose (CMC)
[3] = dose: 400.0 mg/kg/injection, schedule: Q01DX001 (ip), vehicle: carboxymethylcellulose (CMC)
[4] = dose: 100.0 mg/kg/injection, schedule: Q01DX009 (ip), vehicle: saline
[5] = dose: 200.0 mg/kg/injection, schedule: Q01DX009 (ip), vehicle: saline
[6] = dose: 400.0 mg/kg/injection, schedule: Q01DX009 (ip), vehicle: saline
[7] = dose: 100.0 mg/kg/injection, schedule: Q04DX003 (ip), vehicle: Klucel (hydroxypropylcellulose) (HPC)
[8] = dose: 200.0 mg/kg/injection, schedule: Q04DX003 (ip), vehicle: Klucel (hydroxypropylcellulose) (HPC)
[9] = dose: 400.0 mg/kg/injection, schedule: Q04DX003 (ip), vehicle: Klucel (hydroxypropylcellulose) (HPC)

Measured: T/C

CC(=O)N(O)c1ccc(-c2cc3ccccc3[nH]2)cc1
inactive: [1] 101 % of control | [2] 93 % of control | [3] 93 % of control

CCCCOP(=O)(CCCC)OCCCC
inactive: dose: 12.5 mg/kg/injection, schedule: Q01DX009 (ip), vehicle: saline with Tween-80 103 % of control | dose: 12.5 mg/kg/injection, schedule: Q04DX003 (ip), vehicle: saline with Tween-80 86 % of control | dose: 25.0 mg/kg/injection, schedule: Q01DX009 (ip), vehicle: saline with Tween-80 92 % of control | dose: 25.0 mg/kg/injection, schedule: Q04DX003 (ip), vehicle: saline with Tween-80 104 % of control | dose: 50.0 mg/kg/injection, schedule: Q01DX009 (ip), vehicle: saline with Tween-80 92 % of control | dose: 50.0 mg/kg/injection, schedule: Q04DX003 (ip), vehicle: saline with Tween-80 93 % of control and 94 % of control

N#CCC(=O)NCCc1ccccn1
inactive: dose: 25.0 mg/kg/injection, schedule: Q04DX002 (ip), vehicle: saline with Tween-80 93 % of control | dose: 50.0 mg/kg/injection, schedule: Q04DX002 (ip), vehicle: saline with Tween-80 97 % of control | dose: 100.0 mg/kg/injection, schedule: Q04DX002 (ip), vehicle: saline with Tween-80 98 % of control and 101 % of control

COC(=O)C(=NO)C(=O)OC
inactive: [4] 98 % of control | dose: 100.0 mg/kg/injection, schedule: Q04DX003 (ip), vehicle: saline 93 % of control | [5] 106 % of control | dose: 200.0 mg/kg/injection, schedule: Q04DX003 (ip), vehicle: saline 95 % of control | [6] 106 % of control | dose: 400.0 mg/kg/injection, schedule: Q04DX003 (ip), vehicle: saline 96 % of control

O=C(O)/C=C/c1ccc(C(NC(=O)N2C(=O)C=CC2=O)NC(=O)N2C(=O)C=CC2=O)cc1
inactive: [1] 100 % of control | [2] 95 % of control | [3] 97 % of control

CN(C)c1ccc2c(c1)/C(=N/O)c1ccccc1-2
inactive: [1] 103 % of control | [2] 105 % of control | [3] 100 % of control

C(=NCc1ccccc1)C1(c2ccccc2)OC1c1ccccc1 (stereo not drawn)
inactive: [7] 91 % of control | [8] 87 % of control | [9] 88 % of control

O=C(OC1CCC1)c1ccc(N=Nc2ccccc2)cc1
inactive: dose: 75.0 mg/kg/injection, schedule: Q04DX002 (ip), vehicle: Klucel (hydroxypropylcellulose) (HPC) 102 % of control | dose: 150.0 mg/kg/injection, schedule: Q04DX002 (ip), vehicle: Klucel (hydroxypropylcellulose) (HPC) 102 % of control | dose: 300.0 mg/kg/injection, schedule: Q04DX002 (ip), vehicle: Klucel (hydroxypropylcellulose) (HPC) 86 % of control

CS(=O)(=O)OCCNc1ccc([N+](=O)[O-])cc1
inactive: dose: 1.0 mg/kg/injection, schedule: Q01DX001 (ip), vehicle: saline 101 % of control | dose: 2.0 mg/kg/injection, schedule: Q01DX001 (ip), vehicle: saline 101 % of control | dose: 4.0 mg/kg/injection, schedule: Q01DX001 (ip), vehicle: saline 98 % of control | dose: 8.0 mg/kg/injection, schedule: Q01DX001 (ip), vehicle: saline 104 % of control | dose: 38.0 mg/kg/injection, schedule: Q01DX015 (ip), vehicle: saline 98 % of control | dose: 57.0 mg/kg/injection, schedule: Q01DX015 (ip), vehicle: saline 95 % of control | dose: 85.0 mg/kg/injection, schedule: Q01DX015 (ip), vehicle: saline 93 % of control

CCO/C=C1\SC(=S)N(c2ccccc2C)C1=O
inactive: [7] 98 % of control | dose: 100.0 mg/kg/injection, schedule: Q04DX003 (ip), vehicle: saline with Tween-80 100 % of control | dose: 200.0 mg/kg/injection, schedule: Q01DX009 (ip), vehicle: Klucel (hydroxypropylcellulose) (HPC) 91 % of control | [8] 109 % of control | dose: 200.0 mg/kg/injection, schedule: Q04DX003 (ip), vehicle: saline with Tween-80 100 % of control | [9] 104 % of control | dose: 400.0 mg/kg/injection, schedule: Q04DX003 (ip), vehicle: saline with Tween-80 91 % of control

CN(C)/C=N/N1CCN(C)CC1
inactive: dose: 100.0 mg/kg/injection, schedule: Q04DX002 (ip), vehicle: saline 115 % of control | dose: 200.0 mg/kg/injection, schedule: Q04DX002 (ip), vehicle: saline 101 % of control | dose: 400.0 mg/kg/injection, schedule: Q04DX002 (ip), vehicle: saline 97 % of control

NC(=S)c1c(N)n(C2OC(CO)C(O)C2O)c2ncnc(N)c12 (stereo not drawn)
inactive: dose: 3.12 mg/kg/injection, schedule: Q01DX005 (ip), vehicle: saline 116 % of control | dose: 6.25 mg/kg/injection, schedule: Q01DX005 (ip), vehicle: saline 119 % of control and 124 % of control | dose: 12.5 mg/kg/injection, schedule: Q01DX005 (ip), vehicle: saline 112 % of control and 119 % of control | dose: 25.0 mg/kg/injection, schedule: Q01DX005 (ip), vehicle: saline 105 % of control | dose: 50.0 mg/kg/injection, schedule: Q01DX005 (ip), vehicle: saline 120 % of control

CC(=O)Nc1ccc(NCN2C(=O)c3ccccc3C2=O)cc1
inactive: [7] 100 % of control | [8] 97 % of control | [9] 97 % of control

Nc1nnnc2c1ncn2C1OC(CO)C(O)C1O (stereo not drawn)
inactive: dose: 1.6 mg/kg/injection, schedule: Q01DX009 (ip), vehicle: saline 120 % of control | dose: 2.8 mg/kg/injection, schedule: Q01DX009 (ip), vehicle: saline 108 % of control | dose: 4.8 mg/kg/injection, schedule: Q01DX009 (ip), vehicle: saline 117 % of control | dose: 9.5 mg/kg/injection, schedule: Q01DX001 (ip), vehicle: saline 106 % of control | dose: 12.5 mg/kg/injection, schedule: Q04DX002 (ip), vehicle: saline 92 % of control | dose: 14.0 mg/kg/injection, schedule: Q01DX009 (ip), vehicle: saline 123 % of control | dose: 19.0 mg/kg/injection, schedule: Q01DX001 (ip), vehicle: saline 103 % of control and 117 % of control | dose: 25.0 mg/kg/injection, schedule: Q04DX002 (ip), vehicle: saline 100 % of control | dose: 38.0 mg/kg/injection, schedule: Q01DX001 (ip), vehicle: saline 106 % of control and 120 % of control | dose: 38.0 mg/kg/injection, schedule: Q01DX009 (ip), vehicle: saline 105 % of control | dose: 50.0 mg/kg/injection, schedule: Q04DX002 (ip), vehicle: saline 103 % of control | dose: 75.0 mg/kg/injection, schedule: Q01DX001 (ip), vehicle: saline 106 % of control

CCN=C(c1ccc(NC(=O)c2ccc(C(=O)Nc3ccc(C(=NCC)N(CC)C(=O)NCCCl)cc3)cc2)cc1)N(CC)C(=O)NCCCl
inactive: dose: 3.75 mg/kg/injection, schedule: Q01DX015 (ip), vehicle: methylcellulose (MC) 107 % of control | dose: 7.5 mg/kg/injection, schedule: Q01DX015 (ip), vehicle: methylcellulose (MC) 113 % of control

OC1(O)COC(c2ccccc2)OC1
inactive: [4] 96 % of control | [7] 105 % of control | [5] 102 % of control | [8] 101 % of control | [6] 93 % of control | [9] 99 % of control

CC1CCC(C2=CSC3CCCCC3N2)CC1 (stereo not drawn)
inactive: dose: 100.0 mg/kg/injection, schedule: Q04DX002 (ip), vehicle: other 105 % of control | dose: 200.0 mg/kg/injection, schedule: Q04DX002 (ip), vehicle: other 94 % of control | dose: 400.0 mg/kg/injection, schedule: Q04DX002 (ip), vehicle: other 94 % of control
